The results in this text go back to PubChem BioAssay AID328 (DTP/NCI, 2004).

Values joined by “and” are separate entries in the source; they are usually repeats but may differ in a detail not shown here. Identical values can stand only once. Inconclusive results and toxic doses are left out.

The assay deals with BDF1 mice, P388 leukemia ip, median survival T/C. Kind of assay: NCI In Vivo Anticancer Drug Screen. Data for tumor model P388 Leukemia (intraperitoneal) in B6D2F1 (BDF1) mice. Conditions: endpoint: median survival time, higher = longer survival. The method in brief:
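Transplantable tumour in mice; compound vs vehicle dosing; survival scored; ratio of treated to control reported.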

Setting [1] is: dose: 50.0 mg/kg/injection, schedule: Q01DX009 (ip), vehicle: saline with Tween-80.
Setting [2] is: dose: 80.0 mg/kg/injection, schedule: Q04DX003 (ip), vehicle: saline.

`O=C1OC(=O)c2c1ccc(Br)c2Br`: the T/C by setting is: (dose: 100.0 mg/kg/injection, schedule: Q01DX009 (ip), vehicle: Klucel (hydroxypropylcellulose) (HPC)) 100 % of control; (dose: 200.0 mg/kg/injection, schedule: Q01DX009 (ip), vehicle: Klucel (hydroxypropylcellulose) (HPC)) 90 % of control; (dose: 400.0 mg/kg/injection, schedule: Q01DX009 (ip), vehicle: Klucel (hydroxypropylcellulose) (HPC)) 90 % of control.

For the compound `CC1=C(Br)C(=O)C(Br)=C(Br)C1=O`, the T/C was 104 % of control (dose: 25.0 mg/kg/injection, schedule: Q04DX003 (ip), vehicle: Klucel (hydroxypropylcellulose) (HPC)); 109 % of control (dose: 35.0 mg/kg/injection, schedule: Q01DX009 (ip), vehicle: Klucel (hydroxypropylcellulose) (HPC)); 95 % of control (dose: 37.5 mg/kg/injection, schedule: Q01DX001 (ip), vehicle: Klucel (hydroxypropylcellulose) (HPC)); 100 % of control (dose: 50.0 mg/kg/injection, schedule: Q04DX003 (ip), vehicle: Klucel (hydroxypropylcellulose) (HPC)); 90 % of control (dose: 55.0 mg/kg/injection, schedule: Q01DX009 (ip), vehicle: Klucel (hydroxypropylcellulose) (HPC)); 109 % of control (dose: 75.0 mg/kg/injection, schedule: Q01DX001 (ip), vehicle: Klucel (hydroxypropylcellulose) (HPC)). The T/C was 90 % of control (dose: 100.0 mg/kg/injection, schedule: Q04DX003 (ip), vehicle: Klucel (hydroxypropylcellulose) (HPC)) and 100 % of control (dose: 150.0 mg/kg/injection, schedule: Q01DX001 (ip), vehicle: Klucel (hydroxypropylcellulose) (HPC)).

Consider `CC1C/C(=C\NC(N)=O)C(=O)O1` (stereo unspecified), for which the T/C is, setting by setting: (dose: 100.0 mg/kg/injection, schedule: Q04DX003 (ip), vehicle: water) 103 % of control; (dose: 200.0 mg/kg/injection, schedule: Q04DX003 (ip), vehicle: water) 102 % of control; (dose: 400.0 mg/kg/injection, schedule: Q04DX003 (ip), vehicle: water) 103 % of control.

In the case of `CC(=O)N1N=C(N)SC1c1ccc(Cl)c(Cl)c1` (stereo unspecified), the T/C is 113 % of control under setting [1] and 113 % of control (dose: 100.0 mg/kg/injection, schedule: Q01DX009 (ip), vehicle: saline with Tween-80).

As to `O=C1c2ccccc2-c2cccc3cccc1c23`, the T/C is 96 % of control (dose: 6.25 mg/kg/injection, schedule: Q01DX001 (ip), vehicle: saline sonified); 96 % of control (dose: 12.5 mg/kg/injection, schedule: Q01DX001 (ip), vehicle: saline sonified); 92 % of control (dose: 25.0 mg/kg/injection, schedule: Q01DX001 (ip), vehicle: saline sonified).

As for `CC(Cl)CNC(=O)Nc1cccc2c1CCCC2` (stereo unspecified), the T/C by setting is: (dose: 100.0 mg/kg/injection, schedule: Q01DX001 (ip), vehicle: saline with Tween-80) 100 % of control; (dose: 200.0 mg/kg/injection, schedule: Q01DX001 (ip), vehicle: saline with Tween-80) 109 % of control; (dose: 400.0 mg/kg/injection, schedule: Q01DX001 (ip), vehicle: saline with Tween-80) 90 % of control.

As for `CC(=O)Nc1cc(OC(C)=O)n(-c2ccccc2)n1`, the T/C by setting is: (dose: 87.5 mg/kg/injection, schedule: Q01DX009 (ip), vehicle: saline with Tween-80) 97 % of control; (dose: 175.0 mg/kg/injection, schedule: Q01DX009 (ip), vehicle: saline with Tween-80) 86 % of control; (dose: 350.0 mg/kg/injection, schedule: Q01DX009 (ip), vehicle: saline with Tween-80) 98 % of control.

In the case of `O=C(CBr)c1ccc(F)cc1`, the T/C (dose: 0.78 mg/kg/injection, schedule: Q01DX009 (ip), vehicle: Klucel (hydroxypropylcellulose) (HPC)) is 110 % of control; the T/C (dose: 1.56 mg/kg/injection, schedule: Q01DX009 (ip), vehicle: Klucel (hydroxypropylcellulose) (HPC)) is 110 % of control; the T/C (dose: 3.12 mg/kg/injection, schedule: Q01DX009 (ip), vehicle: Klucel (hydroxypropylcellulose) (HPC)) was 112 % of control; the T/C (dose: 6.25 mg/kg/injection, schedule: Q01DX009 (ip), vehicle: Klucel (hydroxypropylcellulose) (HPC)) was 118 % of control.

In the case of `Clc1ccc2nc(CBr)cnc2c1`, the T/C was 104 % of control (dose: 12.5 mg/kg/injection, schedule: Q01DX009 (ip), vehicle: other); 120 % of control (dose: 12.5 mg/kg/injection, schedule: Q01DX009 (ip), vehicle: saline); 109 % of control (dose: 25.0 mg/kg/injection, schedule: Q01DX009 (ip), vehicle: other); 120 % of control (dose: 25.0 mg/kg/injection, schedule: Q01DX009 (ip), vehicle: saline); 95 % of control (dose: 25.0 mg/kg/injection, schedule: Q04DX003 (ip), vehicle: saline with Tween-80); 108 % of control (dose: 35.0 mg/kg/injection, schedule: Q04DX003 (ip), vehicle: saline). In addition, the T/C (dose: 50.0 mg/kg/injection, schedule: Q01DX009 (ip), vehicle: other) was 118 % of control; the T/C under setting [1] was 118 % of control; the T/C (dose: 50.0 mg/kg/injection, schedule: Q01DX009 (ip), vehicle: saline) is 110 % of control; the T/C (dose: 50.0 mg/kg/injection, schedule: Q04DX003 (ip), vehicle: saline with Tween-80) is 109 % of control; the T/C (dose: 55.0 mg/kg/injection, schedule: Q04DX003 (ip), vehicle: saline) was 116 % of control; the T/C under setting [2] is 116 % of control. Also, the T/C is, setting by setting: (dose: 100.0 mg/kg/injection, schedule: Q04DX003 (ip), vehicle: saline with Tween-80) 109 % of control; (dose: 200.0 mg/kg/injection, schedule: Q04DX003 (ip), vehicle: saline with Tween-80) 103 % of control.

Regarding `COc1cc2c[n+](C)c3c4cc5c(cc4ccc3c2cc1OC)OCO5`, the T/C (dose: 1.0 mg/kg/injection, schedule: Q01DX009 (ip), vehicle: water) is 150 % of control; the T/C (dose: 4.0 mg/kg/injection, schedule: Q01DX009 (ip), vehicle: saline) was 161 % of control; the T/C (dose: 5.0 mg/kg/injection, schedule: Q01DX009 (ip), vehicle: saline) was 185 % of control; the T/C (dose: 6.25 mg/kg/injection, schedule: Q01DX009 (ip), vehicle: water) was 182 % of control; the T/C (dose: 8.0 mg/kg/injection, schedule: Q01DX009 (ip), vehicle: saline) is 176 % of control; the T/C (dose: 10.0 mg/kg/injection, schedule: Q01DX005 (ip), vehicle: saline) was 154 % of control. The T/C by setting is: (dose: 10.0 mg/kg/injection, schedule: Q01DX009 (ip), vehicle: saline) 200 % of control; (dose: 10.0 mg/kg/injection, schedule: Q04DX003 (ip), vehicle: saline) 185 % of control; (dose: 12.0 mg/kg/injection, schedule: Q01DX009 (ip), vehicle: water) 177 % of control; (dose: 12.5 mg/kg/injection, schedule: Q01DX009 (ip), vehicle: water) 204 % of control; (dose: 20.0 mg/kg/injection, schedule: Q01DX005 (ip), vehicle: saline) 158 % of control; (dose: 20.0 mg/kg/injection, schedule: Q04DX003 (ip), vehicle: saline) 190 % of control. Moreover, the T/C runs as follows: (dose: 25.0 mg/kg/injection, schedule: Q01DX009 (ip), vehicle: water) 100 % of control; (dose: 28.8 mg/kg/injection, schedule: Q04DX003 (ip), vehicle: Klucel (hydroxypropylcellulose) (HPC)) 193 % of control; (dose: 40.0 mg/kg/injection, schedule: Q01DX005 (ip), vehicle: saline) 183 % of control; (dose: 43.2 mg/kg/injection, schedule: Q04DX003 (ip), vehicle: Klucel (hydroxypropylcellulose) (HPC)) 196 % of control; (dose: 48.0 mg/kg/injection, schedule: Q04DX003 (ip), vehicle: Klucel (hydroxypropylcellulose) (HPC)) 200 % of control; (dose: 50.0 mg/kg/injection, schedule: Q04DX002 (ip), vehicle: Klucel (hydroxypropylcellulose) (HPC)) 225 % of control and 153 % of control. Moreover, the T/C was 172 % of control (dose: 55.0 mg/kg/injection, schedule: Q04DX003 (ip), vehicle: other); 188 % of control (dose: 72.0 mg/kg/injection, schedule: Q04DX003 (ip), vehicle: Klucel (hydroxypropylcellulose) (HPC)); 103 % of control (dose: 80.0 mg/kg/injection, schedule: Q01DX005 (ip), vehicle: saline); 186 % of control (dose: 80.0 mg/kg/injection, schedule: Q01DX009 (ip), vehicle: saline); 200 % of control (dose: 80.0 mg/kg/injection, schedule: Q04DX003 (ip), vehicle: Klucel (hydroxypropylcellulose) (HPC)); 260 % of control under setting [2]. Also, the T/C runs as follows: (dose: 92.0 mg/kg/injection, schedule: Q04DX003 (ip), vehicle: other) 162 % of control; (dose: 120.0 mg/kg/injection, schedule: Q01DX009 (ip), vehicle: saline) 95 % of control; (dose: 133.3 mg/kg/injection, schedule: Q04DX003 (ip), vehicle: Klucel (hydroxypropylcellulose) (HPC)) 170 % of control; (dose: 200.0 mg/kg/injection, schedule: Q04DX003 (ip), vehicle: Klucel (hydroxypropylcellulose) (HPC)) 160 % of control.
